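Method: 48-hour compound exposure of cells in 96-well plates, five concentrations, linear interpolation of endpoints. GI50 marks 50% less growth. Definition used: TGI = concentration required for complete inhibition of growth.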
Tests used:
Assay in all cases: NCI-60 cell line screen, 48 h
HCT-15 colon = test system: HCT-15 colon
LOX IMVI melanoma = test system: LOX IMVI melanoma
UACC-62 melanoma = test system: UACC-62 melanoma
NCI/ADR-RES ovarian = test system: NCI/ADR-RES ovarian
MDA-MB-435 = test system: MDA-MB-435
EKVX NSCLC = test system: EKVX NSCLC
PC-3 prostate = test system: PC-3 prostate
HCT-116 colon = test system: HCT-116 colon
ACHN renal = test system: ACHN renal
SR leukemia = test system: SR leukemia

SMILES	GI50 (HCT-15 colon)	TGI (HCT-15 colon)	GI50 (LOX IMVI melanoma)	TGI (LOX IMVI melanoma)	GI50 (UACC-62 melanoma)	TGI (UACC-62 melanoma)	GI50 (NCI/ADR-RES ovarian)	TGI (NCI/ADR-RES ovarian)	GI50 (MDA-MB-435)	TGI (MDA-MB-435)	GI50 (EKVX NSCLC)	TGI (EKVX NSCLC)	GI50 (PC-3 prostate)	TGI (PC-3 prostate)	GI50 (HCT-116 colon)	TGI (HCT-116 colon)	GI50 (ACHN renal)	TGI (ACHN renal)	TGI (SR leukemia)
COc1ccccc1/C=C/C(=O)c1c(O)cc2occc2c1OC	> 100 µM	> 100 µM	30.1 µM	> 100 µM	23.7 µM	> 100 µM	29.6 µM	> 100 µM	5.96 µM	> 100 µM	37.1 µM	> 100 µM	> 100 µM	> 100 µM	40.4 µM	> 100 µM	30 µM	> 100 µM	
COc1ccc2c(c1O)C(=O)C(CCC(=O)O)CC2 (stereo unspecified)		> 100 µM		> 100 µM		> 100 µM						> 100 µM				> 100 µM		> 100 µM	
Nc1nc(Cl)cc(NCCCCCNc2cc(Cl)nc(N)n2)n1		> 100 µM		> 100 µM		83.9 µM						> 100 µM				> 100 µM		52.2 µM	> 100 µM
C=CCCOC(=O)CO[N+](=O)[O-]		> 100 µM		> 100 µM								> 100 µM				> 100 µM		> 100 µM	> 100 µM
CCN(CC)CC.CCOc1ccc(NC(=O)N=C=[N-])cc1.[CH-]1CCCCC1.[CH-]1CCCCC1.[CH-]1CCCCC1.[Cl-].[Sn+4]	0.0198 µM	0.0555 µM	0.0157 µM	0.0483 µM	0.0228 µM	0.0559 µM	0.0221 µM	0.0559 µM	0.0151 µM	0.0296 µM	0.043 µM	0.143 µM	0.0596 µM	0.21 µM	0.014 µM	0.0289 µM	0.0493 µM	0.116 µM	
C=CCCCn1ccc2ccccc21		> 100 µM		> 100 µM		> 100 µM						> 100 µM				> 100 µM		> 100 µM	> 100 µM
C#Cc1c(C)c(/C=C/C(C)=C/C=C/C(C)=C/C(=O)OC)n(C)c1C		> 100 µM		> 100 µM		> 100 µM						> 100 µM				> 100 µM		> 100 µM	> 100 µM
O=C(NCCc1ccccc1)C(c1ccccc1)(c1ccccc1)c1ccccc1	5.91 µM	> 100 µM			1.46 µM	14.6 µM	2.23 µM	6.59 µM	12.2 µM	45.8 µM	4.13 µM	27.1 µM	31 µM	> 100 µM	1.95 µM	> 100 µM	3.13 µM	9.35 µM	
COc1ccc(/C=C/C(=O)C(C)(C)CN2CCCCC2)cc1		34.3 µM		29.6 µM		65.5 µM						80.7 µM				30.8 µM		60.1 µM	
CC(=O)NC(CCCCN(Cc1ccccc1)C(=O)NCCCl)C(=O)NCc1ccccc1 (stereo unspecified)		> 100 µM				> 100 µM						> 100 µM				> 100 µM		> 100 µM	> 100 µM
O=C(CSc1nc2ccccc2nc1-c1ccccc1)Nc1ccc(Cl)cc1	76.7 µM	> 100 µM	38.3 µM	> 100 µM	20.7 µM	> 100 µM	24.9 µM	91.5 µM	29.8 µM	> 100 µM	49.5 µM	> 100 µM	30.6 µM	> 100 µM	5.24 µM	24 µM	12.3 µM	47.1 µM	
CCOc1cc2ccc3c4cc(OC)c(OC)cc4cnc3c2cc1OCC		> 100 µM				> 100 µM						> 100 µM				> 100 µM		> 100 µM	
NCCCCCCCCn1c2c(c3ccccc3c1=O)C(=O)c1ccccc1-2	3.26 µM	10.2 µM	3.64 µM	> 100 µM	3.76 µM	14.1 µM	4.29 µM	85.1 µM	5.63 µM	21.5 µM	17.4 µM	44.7 µM	5.05 µM	23.3 µM			4.07 µM	14 µM	
C[N+](C)(C)CC(=O)N/N=C(\CCC(=O)NCCc1ccccc1)CC(=O)c1ccccc1		> 100 µM		> 100 µM		> 100 µM						> 100 µM				> 100 µM		> 100 µM	
O=C(Cc1nc2ccccc2s1)Nc1ccc(Cl)cc1				> 100 µM		> 100 µM						> 100 µM				> 100 µM		> 100 µM	> 100 µM
Cc1cccc(-c2nn3c(c2-c2ccnc4ccc(C(N)=O)cc24)CCC3)n1	> 100 µM	> 100 µM	> 100 µM	> 100 µM	78.8 µM	> 100 µM	> 100 µM	> 100 µM	> 91.4 µM	> 100 µM	> 100 µM	> 100 µM	> 100 µM	> 100 µM	> 100 µM	> 100 µM	> 100 µM	> 100 µM	

SMILES	GI50 (HCT-15 colon)	TGI (HCT-15 colon)	GI50 (LOX IMVI melanoma)	TGI (LOX IMVI melanoma)	GI50 (UACC-62 melanoma)	TGI (UACC-62 melanoma)	GI50 (NCI/ADR-RES ovarian)	TGI (NCI/ADR-RES ovarian)	GI50 (MDA-MB-435)	TGI (MDA-MB-435)	GI50 (EKVX NSCLC)	TGI (EKVX NSCLC)	GI50 (PC-3 prostate)	TGI (PC-3 prostate)	GI50 (HCT-116 colon)	TGI (HCT-116 colon)	GI50 (ACHN renal)	TGI (ACHN renal)	TGI (SR leukemia)
CCSC(SCC)c1cc2c(cc1Br)OCO2		> 100 µM		38 µM		> 100 µM						> 100 µM				82.6 µM		> 100 µM	
COc1cc2c3c(c4ccc(OC)c(OC)c4c2cc1OC)CN1CCC[C@@H]1C3		11.4 µM		0.384 µM		0.35 µM		0.4 µM		5.83 µM		0.378 µM		6.58 µM		3.1 µM		3.55 µM	
COc1cc(OC)c2ssc3c(OC)cc(OC)c4ssc1c2-c43		> 100 µM		> 100 µM		> 100 µM						> 100 µM				> 100 µM		> 100 µM	
O=C(NCCO)c1cc2c(cn1)[nH]c1ccccc12		> 100 µM		> 100 µM		> 100 µM						> 100 µM				> 100 µM		> 100 µM	
COc1cc2c(c(OC)c1O)-c1ccc(OC)c(=O)cc1[C@@H](NC(=O)C(F)(F)F)CC2		> 100 µM		> 100 µM		> 100 µM		> 100 µM		0.055 µM		> 100 µM		0.588 µM		> 40.8 µM		> 100 µM	
CN(C)c1ncnc2c1Cc1ccccc1C(=O)N2C				> 100 µM		> 100 µM						> 100 µM				> 100 µM		> 100 µM	> 100 µM
Cc1ccc(S(=O)(=O)Oc2ccc([N+](=O)[O-])cc2[N+](=O)[O-])cc1	3.61 µM	17.9 µM	3.23 µM	15 µM	12.4 µM	30.9 µM	5.31 µM	38 µM	3.1 µM	10.5 µM	17.9 µM	34.4 µM	5.15 µM	26.5 µM	3.16 µM	13.2 µM	7.64 µM	22.5 µM	
CCOC(CCCNCCCn1c2c(c3cc(OC)c(OC)cc3c1=O)C(=O)c1cc3c(cc1-2)OCO3)OCC	6.1 µM	12.3 µM	1.73 µM	9.81 µM	6.03 µM	12.2 µM	6.5 µM	13.7 µM	7.32 µM	13.9 µM			5.38 µM	11.3 µM	2.41 µM	9.83 µM	1.28 µM	7.66 µM	
N.N.N.N.O=NN1CCCCCC1(P(=O)([O-])[O-])P(=O)([O-])[O-].[Pt+4].[Pt+4]	> 100 µM	> 100 µM	> 100 µM	> 100 µM	> 100 µM	> 100 µM					> 100 µM	> 100 µM			> 100 µM	> 100 µM	> 100 µM	> 100 µM	
CSc1nc(NC2OCC(OC(C)=O)C(OC(C)=O)C2OC(C)=O)c(N=C(C)C(C)=O)c(=O)n1C (stereo unspecified)		> 100 µM		> 100 µM		> 100 µM						> 100 µM				> 100 µM		> 100 µM	
O=Nc1ccc(O)c2ccccc12	2.14 µM	4.98 µM	0.668 µM	2.28 µM	1.69 µM	3.37 µM	1.11 µM	6.61 µM	0.33 µM	1.1 µM	1.88 µM	4.43 µM	1.88 µM	6.99 µM	1.17 µM	2.46 µM	1.69 µM	3.14 µM	
COc1ccccc1-c1cc(/C=C2\C(=O)Nc3ncc(Br)cc32)cc(Br)c1O	9.6 µM	> 25 µM	10.5 µM	> 25 µM	6.91 µM	> 25 µM	14.5 µM	> 25 µM	7.47 µM	> 25 µM	11.2 µM	> 25 µM	9.18 µM	> 25 µM	10.2 µM	> 25 µM	11.7 µM	> 25 µM	
CCOC(=O)Cc1nc2ccccc2s1				32.4 µM		33.3 µM						> 100 µM				39 µM		32.1 µM	48.9 µM
O=C1Nc2cc(Cl)ccc2N=CC1NC(=O)C(c1ccccc1)c1ccccc1Cl (stereo unspecified)		> 100 µM		> 100 µM		> 100 µM						> 100 µM				> 100 µM		> 100 µM	
COC(=O)C(Cc1cnc[nH]1)NC(=O)CNC(=O)CCCn1c(=O)c2c3ccccc3n(C)c2n2nnc(-c3ccccc3)c12 (stereo unspecified)	> 100 µM	> 100 µM	> 100 µM	> 100 µM	> 100 µM	> 100 µM	> 100 µM	> 100 µM	> 100 µM	> 100 µM	> 100 µM	> 100 µM	30.1 µM	> 100 µM	> 100 µM	> 100 µM	> 100 µM	> 100 µM	

Reference: PubChem BioAssay (NCI)
